From patent US11220548B2, “Treatment of C1013G/CXCR4-associated Waldenstrom's macroglobulinemia with an anti-CXCR4 antibody” (BRISTOL-MYERS SQUIBB COMPANY, priority 2013, dated 2022)

Experiments:
[1] = tested on: C1013G/CXCR4-WM cell lines (BCWM1; MWCL1); experiment: Cytotoxicity (MTT) of anti-WM agents, 48 h exposure; format: cell-based, human; conditions: vs control vector-infected cells
From the text: FIGS. 13A and 13B show GSEA enrichment plots of multiple drug resistance and response to drug signature genes in C1013G/CXCR4-mutated cells and control vector-infected cells (control cells), respectively. The plotted curves show the enrichment score and reflect the degree to which each gene (vertical lines) is represented at the top or bottom of the ranked gene list. The heat map indicates the relative abundance (left to right) of the genes specifically enriched in the mutated cells as compared with the control cells. Gene sets were considered enriched with a FDR always <0.25. Normalized enrichments score (NES) and FDR are shown per each gene set analyzed. FIGS. 13C-13G show the effects on C1013G/CXCR4-WM cell lines (BCWM1; MWCL1) or control vector-infected cells (control) exposed to everolimus, ibrutinib, idelalisib, bortezomib, and carfilzomib for 48 h.
Everolimus, idelalisib, ibrutinib, bortezomib, and carfilzomib were purchased from Selleck Chemicals (Houston, Tex.). Drugs were dissolved in dimethylsulfoxide and subsequently diluted in cell culture medium (10% fetal bovine serum) immediately before use.

[2] = tested on: BCWM.1-mCherry+ cells; experiment: In vivo homing and tumor progression of wild-type WM cells; design: species or system SCID/Bg mice; conditions: human IgM ELISA at end of study; P<0.05
Protocol: Serum was collected at the end of the study. […] Cell toxicity was performed by MTT. […] Bars indicate standard deviation.
Human serum IgM levels were determined by using a human IgM ELISA assay (ZeptoMetrix, Buffalo, N.Y.), according to the manufacturer's protocol.
SCID/Bg mice (n=5/group) were injected with BCWM.1 infected with either precision LentiORF/CXCR4/GFP (CXCR4^+)- or empty vector probe/RFP (control)-infected BCWM.1 cells. After three weeks, mice were euthanized and organs harvested. Hematoxylin-eosin staining, immunohistochemistry for human-CD20 and -CXCR4 were performed on explanted organs. Independent experiments were conducted to evaluate differences in survival (SCID/Bg mice, n=7/group). Similar studies were conducted using […]/CXCR4-mutated cells and control vector-infected cells (control cells). In vivo homing studies were performed using BCWM.1-mCherry^+ cells: cells were injected intravenously into […] mice and treated with either BMS-936564 or control antibody (10 mg/kg, intraperitoneally; 3-4 times per week for 3 weeks). The ability of BMS-936564 to modulate WM homing to BM, spleen and lymph nodes was evaluated ex vivo at the third week on explanted tissues, by using a fluorescence microscope (Nikon Eclipse 80i, Melville, N.Y.) (Roccaro et al., 2013).
The anti-WM activity of BMS-936564 was also tested in vivo using wild-type WM cells. BCWM.1-mCherry^+ cells were injected intravenously into SCID/Bg mice and treated mice with either BMS-936564 or control antibody.
As CXCR4 inhibition is thought to induce stem cell and tumor cell mobilization, it was hypothesized that BMS-936564 may also induce mobilization of WM cells leading to increased chemosensitivity to anti-WM agents. Accordingly, the effect of BMS-936564 in modulating tumor progression and WM cell dissemination to distant BM niches in vivo was evaluated as monotherapy or in combination with bortezomib.

[3] = tested on: WM cells; conditions: cited from earlier work
[4] = tested on: WM cells; conditions: cited from earlier work; remark: listed apart in the source

With `CO[C@H]1C[C@@H]2CC[C@@H](C)[C@@](O)(O2)C(=O)C(=O)N2CCCC[C@H]2C(=O)O[C@H]([C@H](C)C[C@@H]2CC[C@@H](OCCO)[C@H](OC)C2)CC(=O)[C@H](C)/C=C(\C)[C@@H](O)[C@@H](OC)C(=O)[C@H](C)C[C@H](C)/C=C/C=C/C=C/1C` [everolimus] the “sensitivity of C1013G/CXCR4-mutated WM cells compared with unmutated control cells” value [1] was “resistance”.

For `CC(C)C[C@H](NC(=O)[C@H](Cc1ccccc1)NC(=O)c1cnccn1)B(O)O` [bortezomib, reference compound], the “serum IgM levels” value [2] was “significantly reduced” and the “sensitivity of C1013G/CXCR4-mutated WM cells compared with unmutated control cells” value [1] was “equally sensitive”.

In the case of `CC[C@H](Nc1ncnc2[nH]cnc12)c1nc2cccc(F)c2c(=O)n1-c1ccccc1` [idelalisib], the “sensitivity of C1013G/CXCR4-mutated WM cells compared with unmutated control cells” value [1] is reported as “resistance”.

For `CC(C)C[C@H](NC(=O)[C@H](CCc1ccccc1)NC(=O)CN1CCOCC1)C(=O)N[C@@H](Cc1ccccc1)C(=O)N[C@@H](CC(C)C)C(=O)[C@@]1(C)CO1` [carfilzomib], the “sensitivity of C1013G/CXCR4-mutated WM cells compared with unmutated control cells” value [1] was “equally sensitive”.

In the case of `c1cc(CN2CCCNCCNCCCNCC2)ccc1CN1CCCNCCNCCCNCC1` [AMD3100, plerixafor], the “migration of WM cells” value [3] is listed as “significantly inhibit” and the “adhesion of WM cells to fibronectin, stromal cells, and endothelial cells” value [4] is listed as “significantly inhibit”.
